This note sets out measurements from ChEMBL document CHEMBL1148886, “Synthesis and antibacterial activity of 3-keto-6-O-carbamoyl-11,12-cyclic thiocarbamate erythromycin A derivatives” (2007).

In brackets after ≈: the same amount, converted by molar mass. A value given as a limit tells only on which side of the number the result lay.

Common to all, as to type: functional
One assay relates to Staphylococcus aureus. The assay can be described thus: Antibacterial activity against erythromycin-susceptible Staphylococcus aureus OC4172 by broth microdilution method.
The test system of the next assay is Haemophilus influenzae. The assay can be described thus: Antibacterial activity against Haemophilus influenzae OC4882 by broth microdilution method. A general note: Dilution methods test growth across graded concentrations, often in twofold steps.
The test system of assay [1] is Streptococcus pneumoniae. The assay can be described thus: Antibacterial activity against erythromycin-susceptible Streptococcus pneumoniae OC9132 by broth microdilution method.
The test system of assay [2] is Streptococcus pneumoniae. The assay can be described thus: Antibacterial activity against erythromycin-resistant Streptococcus pneumoniae OC4438 containing mef(A) by broth microdilution method.
Assay [3] relates to Streptococcus pneumoniae. The assay is described as follows: Antibacterial activity against erythromycin-resistant Streptococcus pneumoniae OC4051 containing erm(B) by broth microdilution method.

Turning to `CC[C@H]1OC(=O)[C@H](C)C(=O)[C@H](C)[C@@H](O[C@@H]2O[C@H](C)C[C@H](N(C)C)[C@H]2O)[C@](C)(OC(N)=O)C[C@@H](C)C(=O)[C@H](C)[C@@H]2NC(=S)O[C@]12C`, the MIC with Staphylococcus aureus was 4 mg/L (≈ 6.08 µM); with Haemophilus influenzae it was 8 mg/L (≈ 12.2 µM); against Streptococcus pneumoniae [1] it was 0.25 mg/L (≈ 0.38 µM).

As for `CC[C@H]1OC(=O)[C@H](C)[C@@H](O[C@H]2C[C@@](C)(OC)[C@@H](O)[C@H](C)O2)[C@H](C)[C@@H](O[C@@H]2O[C@H](C)C[C@H](N(C)C)[C@H]2O)[C@](C)(O)C[C@@H](C)C(=O)[C@H](C)[C@@H](O)[C@]1(C)O` [ERYTHROMYCIN], the MIC against Staphylococcus aureus was 0.5 mg/L (≈ 0.681 µM); in the assay with Streptococcus pneumoniae [2], 4 mg/L (≈ 5.45 µM); with Haemophilus influenzae it was 8 mg/L (≈ 10.9 µM); in the assay on Streptococcus pneumoniae [3], > 16 mg/L; against Streptococcus pneumoniae [1], 0.06 mg/L (≈ 0.0818 µM).

For `CC[C@H]1OC(=O)[C@H](C)C(=O)[C@H](C)[C@@H](O[C@@H]2O[C@H](C)C[C@H](N(C)C)[C@H]2O)[C@](C)(OC)C[C@@H](C)C(=O)[C@H](C)[C@H]2N(CCCCn3cnc(-c4cccnc4)c3)C(=O)O[C@]12C` [TELITHROMYCIN], the MIC in the assay on Staphylococcus aureus stood at 0.25 mg/L (≈ 0.308 µM); in the assay with Streptococcus pneumoniae [2], 0.25 mg/L (≈ 0.308 µM); in the assay with Haemophilus influenzae, 2 mg/L (≈ 2.46 µM); against Streptococcus pneumoniae [3] it was 0.06 mg/L (≈ 0.0739 µM); against Streptococcus pneumoniae [1] it was 0.03 mg/L (≈ 0.0369 µM).
